# US8236492B2 (priority 2003, dated 2012)
# System: ileal fluid dependant organism (IFDO)
# Type: cell-based
SMILES,efficacy of LpH phenols tested at equivocal concentrations,Log10 Reduction of Colonies
"CCC(C)(C)c1ccc(O)cc1 [PTAP, p-tertiary-amylphenol]",less effective,–
Cc1ccc(O)cc1 [p-Cresol],–,3.7
Oc1c(Cl)cc(Cl)c(Cl)c1Cc1c(O)c(Cl)cc(Cl)c1Cl [Hexachlorophene],–,3.6
Cc1ccc(C(C)C)c(O)c1 [Thymol],–,3.2
Cc1cc(O)ccc1Cl [p-Chloro-m-cresol],–,4.3
Oc1ccccc1 [Phenol],–,3.6
Oc1ccc(Cl)cc1Cc1ccccc1 [o-Benzyl-p-chlorophenol],optimal,4.7
"Cc1cccc(O)c1C [2,3-Dimethylphenol]",–,4.1
Oc1cc(Cl)ccc1Oc1ccc(Cl)cc1Cl [Triclosan],–,2.7
Oc1ccccc1-c1ccccc1 [o-Phenylphenol],optimal,4.8
"Oc1cc(Cl)c(Cl)cc1Cl [2,4,5-Trichlorophenol]",–,4.9
"Oc1ccc(Cl)cc1Cc1cc(Cl)ccc1O [2,2-Methylenebis(4-chlorophenol)]",–,3.8
